In data set [1] the test system is Meerschweinchen-Papillarmuskel. The data set can be described thus: Effect on contraction force of the heart, guinea pig papillary muscle. It is filed as cell-based. The conditions noted are these: contraction force (negative inotropy), read-out: C20 CF. From the text: Die Wirkung auf die Kontraktionskraft des Herzens wurde am Meerschweinchen-Papillarmuskel untersucht. Hämodynamische Studien wurden bei gesunden, wie auch akut infarzierten Hunden durchgeführt.

Data set [2] deals with Purkinje-Fasern aus Hundeherzen. The data set can be described thus: Electrophysiological studies on Purkinje fibres from dog hearts (Vmax). It is filed as cell-based, Hund. The conditions noted are these: for IC20: Purkinje-Fasern aus Hundeherzen, read-out: C20 Vmax; for Prematurity Faktor Vmax: Vorzeitigkeitsindex, activity on premature extrasystoles; for Rate-Faktor von Vmax: specifically stronger activity at higher frequencies. The source says: Die antiarrhythmische Wirksamkeit der erfindungsgemäßen Verbindungen wurde sowohl anhand von elektrophysiologischen Studien an Purkinje-Fasern aus Hundeherzen sowie mit Hilfe von Ouabaininduzierten ventrikulären Tachykardien bei Hunden bestimmt. […]
Als zusätzliches Kriterium wurde der Vorzeitigkeitsindex (Prematurity-Faktor) bestimmt, der die erwünschte Wirksamkeit der erfindungsgemäßen Verbindungen bei vorzeitigen Extrasystolen charakterisiert.

The nature of data set [3]: Acute toxicity LD50 in rats, i.v. The following applies: rat, in vivo, iv; Ratte (i.v.); read-out: LD₅₀.
Data set [4] in a line: Acute toxicity LD50 in mice, i.v. The conditions noted are these: mouse, in vivo, iv; Maus (i.v.); read-out: LD₅₀.

Each structure is given as a SMILES string.

In the case of `CCC(C)(C)NCC(O)COc1cc(CCC(=O)c2ccc(C)cc2)ccc1OC.Cl` (centres unmarked) [Beispiel 36, 1-(4-Methylphenyl)-3-[3′-(2-hydroxy-3-tert.-pentylaminopropoxy)-4′-methoxyphenyl]-1-propanon-hydrochlorid], the IC20 in data set [1] was found to be 8 µM. In data set [2], the IC20 came to 2.8 µM, the “Prematurity Faktor Vmax” value is recorded as 0,99 and the “Rate-Faktor von Vmax” value is 1,41. Also, the LD50 in data set [3] was 10 mg/kg. For the same compound, the LD50 in data set [4] was determined as 18 mg/kg.

For `CCC(C)(C)NCC(O)COc1cc(CCC(=O)c2cc(OC)c(OC)c(OC)c2)ccc1OC.Cl` (centres unmarked) [Beispiel 28, 1-(3,4,5-Trimethoxyphenyl)-3-[3′-(2-hydroxy-3-tert.-pentylaminopropoxy)-4′-methoxyphenyl]-1-propanon-hydrochlorid], the IC20 in data set [1] was 6 µM; in data set [2] it was 1.4 µM. The “Prematurity Faktor Vmax” value in data set [2] is on record as 1,01. The LD50 in data set [3] stood at 11 mg/kg; in data set [4] it was 16 mg/kg.

As to `COc1ccc(CCC(=O)c2cc(OC)c(OC)c(OC)c2)cc1OCC(O)CNC(C)(C)C.Cl` (centres unmarked) [Beispiel 31, 1-(3,4,5-Trimethoxyphenyl)-3-[3′-(2-hydroxy-3-tert.-butylaminopropoxy)-4′-methoxyphenyl]-1-propanon-hydrochlorid], the IC20 in data set [1] stood at 5 µM. Besides, in data set [2], the IC20 was 1.4 µM, the “Prematurity Faktor Vmax” value is 0,97 and the “Rate-Faktor von Vmax” value is given as 1,15. For the same compound, the LD50 in data set [3] stood at 13 mg/kg. Also, the LD50 in data set [4] was found to be 18 mg/kg.

The record behind these values is patent EP0297435A2, “Aminopropanol derivatives of 3-(3'-hydroxyphenyl)-1-propanone, process for their preparation and medicines containing these compounds” (Helopharm W. Petrik GmbH & Co.KG., priority 1987, dated 1989).
